Data set [1] addresses Sigma non-opioid intracellular receptor 1 (Homo sapiens, UniProt Q99720). As to the kind of experiment: Displacement of [3H]pentazocine from human sigma 1 receptor expressed in HEK293 cell membrane incubated for 2 hrs by liquid scintillation counting method. In kind it is cell membranes. In general terms: In a radioligand displacement assay an active substance lowers the binding of a labelled ligand.

For data set [2], the target named is T1, Sigma intracellular receptor 2 (Rattus norvegicus, UniProt Q5U3Y7).
T1 sequence (Q5U3Y7 whole entry): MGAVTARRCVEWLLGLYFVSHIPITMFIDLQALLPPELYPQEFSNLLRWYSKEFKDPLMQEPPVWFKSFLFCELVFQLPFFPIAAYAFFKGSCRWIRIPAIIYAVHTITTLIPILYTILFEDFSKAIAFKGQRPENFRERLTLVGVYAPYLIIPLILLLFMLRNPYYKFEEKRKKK
As to the kind of experiment: Displacement of (+)-[3H]DTG from sigma 2 receptor in SPRD rat liver membrane incubated for 2 hrs by liquid scintillation counting method. The class given is cell membranes.

For data set [3], the target named is T2, MAO-B (amine oxidase [flavin-containing] B) (Homo sapiens, UniProt P27338).
T2 sequence (P27338 whole entry): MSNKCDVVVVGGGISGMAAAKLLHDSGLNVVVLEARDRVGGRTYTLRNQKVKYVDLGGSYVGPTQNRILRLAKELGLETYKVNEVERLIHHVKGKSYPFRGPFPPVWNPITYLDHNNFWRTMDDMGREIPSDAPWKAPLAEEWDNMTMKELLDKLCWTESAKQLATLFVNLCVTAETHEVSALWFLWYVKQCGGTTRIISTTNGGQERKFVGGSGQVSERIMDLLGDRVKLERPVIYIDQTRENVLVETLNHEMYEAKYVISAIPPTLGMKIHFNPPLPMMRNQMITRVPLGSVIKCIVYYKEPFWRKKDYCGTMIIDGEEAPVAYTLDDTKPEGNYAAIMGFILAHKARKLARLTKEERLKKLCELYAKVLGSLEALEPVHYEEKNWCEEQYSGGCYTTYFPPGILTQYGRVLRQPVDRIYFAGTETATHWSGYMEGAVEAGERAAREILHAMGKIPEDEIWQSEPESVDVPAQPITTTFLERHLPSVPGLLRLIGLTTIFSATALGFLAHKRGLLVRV
As to the kind of experiment: Inhibition of human MAO-B assessed as residual activity at 10 uM. The settings on record: read-out: Activity.

Another data set concerns the target Cholinesterase (Homo sapiens, UniProt P06276). As to the kind of experiment: Inhibition of human BuChE.
In data set [4] the target is T3, Amine oxidase [flavin-containing] B (Homo sapiens, UniProt P27338).
T3 sequence (P27338 whole entry): T2 sequence (P27338 whole entry)
As to the kind of experiment: Inhibition of human MAO-B.

The target in a further data set is Acetylcholinesterase (Homo sapiens, UniProt P22303). As to the kind of experiment: Inhibition of human AChE.

SMILES strings stand for the structures.

Sequence of Sigma non-opioid intracellular receptor 1 (Q99720 whole entry): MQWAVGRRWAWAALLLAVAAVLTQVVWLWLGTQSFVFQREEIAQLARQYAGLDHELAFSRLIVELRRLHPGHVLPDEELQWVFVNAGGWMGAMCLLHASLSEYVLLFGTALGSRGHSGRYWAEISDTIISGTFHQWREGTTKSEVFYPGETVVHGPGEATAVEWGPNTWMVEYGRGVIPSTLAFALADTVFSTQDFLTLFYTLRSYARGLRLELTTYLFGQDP
Sequence of Cholinesterase (P06276 whole entry): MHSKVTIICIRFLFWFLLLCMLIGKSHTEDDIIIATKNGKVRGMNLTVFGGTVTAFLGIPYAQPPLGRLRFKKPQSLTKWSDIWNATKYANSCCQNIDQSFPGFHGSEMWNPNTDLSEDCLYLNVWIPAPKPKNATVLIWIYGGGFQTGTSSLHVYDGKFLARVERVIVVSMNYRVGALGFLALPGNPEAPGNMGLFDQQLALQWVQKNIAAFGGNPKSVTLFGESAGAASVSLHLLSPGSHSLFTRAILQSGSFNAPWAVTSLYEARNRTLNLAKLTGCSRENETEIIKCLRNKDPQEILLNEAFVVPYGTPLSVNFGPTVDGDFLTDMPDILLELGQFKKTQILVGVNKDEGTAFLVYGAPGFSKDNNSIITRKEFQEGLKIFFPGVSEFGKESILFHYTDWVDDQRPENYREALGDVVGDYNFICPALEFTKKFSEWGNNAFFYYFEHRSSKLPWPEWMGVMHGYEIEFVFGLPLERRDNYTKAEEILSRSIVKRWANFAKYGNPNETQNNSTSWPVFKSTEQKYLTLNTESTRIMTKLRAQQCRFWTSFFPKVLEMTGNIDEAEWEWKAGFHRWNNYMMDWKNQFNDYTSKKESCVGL
Sequence of Acetylcholinesterase (P22303 whole entry): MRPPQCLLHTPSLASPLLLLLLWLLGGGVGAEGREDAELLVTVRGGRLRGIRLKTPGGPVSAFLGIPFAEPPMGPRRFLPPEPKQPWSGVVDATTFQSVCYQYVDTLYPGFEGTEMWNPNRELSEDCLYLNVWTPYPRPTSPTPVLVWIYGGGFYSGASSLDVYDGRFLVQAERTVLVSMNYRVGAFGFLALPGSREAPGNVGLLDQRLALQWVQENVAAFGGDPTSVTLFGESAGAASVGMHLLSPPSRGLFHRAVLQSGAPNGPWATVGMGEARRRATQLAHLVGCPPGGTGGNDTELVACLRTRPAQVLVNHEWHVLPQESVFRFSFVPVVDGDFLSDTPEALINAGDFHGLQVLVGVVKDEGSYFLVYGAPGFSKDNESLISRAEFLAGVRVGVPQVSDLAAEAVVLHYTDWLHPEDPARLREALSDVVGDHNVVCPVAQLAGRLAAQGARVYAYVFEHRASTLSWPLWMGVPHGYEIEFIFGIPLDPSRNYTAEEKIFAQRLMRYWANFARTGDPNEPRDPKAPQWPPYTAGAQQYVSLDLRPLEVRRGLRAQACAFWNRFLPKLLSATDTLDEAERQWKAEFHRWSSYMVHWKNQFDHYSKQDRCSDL

Consider `O=c1ccoc2ccc(OCCCCCN3CCCCC3)cc12`, for which the figures for the Ki in data set [1] and in data set [2] were 213 nM and 490 nM, respectively.
Take `O=c1ccoc2ccc(OCCN3CCCC3)cc12`: the inhibition constant (Ki) – broadly, the dissociation constant of the complex between target and ligand, obtained from inhibition or displacement – in data set [1] is 2870 nM; in data set [2], 12500 nM.
Consider `O=c1ccoc2ccc(OCCCCCN3CCOCC3)cc12`, for which, in data set [3], the activity at 10 µM is 58%. In addition, the Ki in data set [1] turned out to be 19.6 nM; in data set [2], 2630 nM. For the same compound, at Cholinesterase, the IC50 – broadly, the concentration that inhibits the measured activity by half – is > 100000 nM.
`O=c1ccoc2ccc(OCCCN3CCCCCC3)cc12`: in data set [3], the activity at 10 µM worked out at 54%. Also, the Ki in data set [1] was found to be 27.2 nM; in data set [2], 750 nM.
With `O=c1ccoc2ccc(OCCCN3CCCC3)cc12`, the Ki in data set [1] turned out to be 499 nM; in data set [2] it was 23900 nM.
With `CCN(CC)CCOc1ccc2occc(=O)c2c1`, the Ki amounted to 12100 nM in data set [1] and 30000 nM in data set [2].
In the case of `C[C@@H]1CCCN1CCCCCOc1ccc2occc(=O)c2c1`, the figures for the Ki in data set [1] and in data set [2] were 134 nM and 583 nM, respectively.
Turning to `O=c1ccoc2ccc(OCCN3CCOCC3)cc12`, the Ki in data set [2] is > 10000 nM.
As for `O=c1ccoc2ccc(OCCCN3CCOCC3)cc12`, the Ki worked out at 245 nM in data set [1] and 22500 nM in data set [2]. Further, the IC50 in data set [4] (read-out: IC50) is 1180 nM.
Take `CN1CCN(CCCOc2ccc3occc(=O)c3c2)CC1`: the Ki in data set [1] amounted to 809 nM; in data set [2] it was 17100 nM.
Regarding `O=c1ccoc2ccc(OCCN3CCCCCC3)cc12`, the Ki was 113 nM in data set [1] and 1620 nM in data set [2].
On to `O=c1ccoc2ccc(OCCCCN3CCCCC3)cc12`, for which the Ki in data set [1] is 309 nM; in data set [2] it was 1970 nM. Further, the IC50 in data set [4] (read-out: IC50) came to 7200 nM; on Cholinesterase, 87500 nM; against Acetylcholinesterase it was 5580 nM.
Turning to `CN1CCN(CCCCCOc2ccc3occc(=O)c3c2)CC1`, the figures for the Ki in data set [1] and in data set [2] were 82.5 nM and 4100 nM, respectively.
Turning to `O=c1ccoc2ccc(OCCCCN3CCOCC3)cc12`, the Ki in data set [1] turned out to be 23.9 nM; in data set [2] it was 14600 nM.
The like results for `CCN(CC)CCCCCOc1ccc2occc(=O)c2c1` were, in that order, 218 nM and 2500 nM.
For the compound `O=c1ccoc2ccc(OCCCCCN3CCCC3)cc12`, the Ki is 87 nM in data set [1] and 1450 nM in data set [2]. The IC50 result in data set [4] is “Not Active”.
With `CCN(CC)CCCOc1ccc2occc(=O)c2c1`, the Ki was found to be 1220 nM in data set [1] and 8360 nM in data set [2].
Consider `C[C@@H]1CCCN1CCCCOc1ccc2occc(=O)c2c1`, for which the inhibition constant (Ki) in data set [1] came to 104 nM; in data set [2] it was 1090 nM.
The like results for `O=c1ccoc2ccc(OCCCCN3CCCC3)cc12` were, in that order, 227 nM and 3110 nM.
As for `O=c1ccoc2ccc(OCCCN3CCCCC3)cc12`, the inhibition constant (Ki) turned out to be 65.5 nM in data set [1] and 2890 nM in data set [2]. Also, the IC50 result in data set [4] is on record as “Not Active”.
Consider `CN1CCN(CCOc2ccc3occc(=O)c3c2)CC1`, for which the Ki in data set [1] is 604 nM; in data set [2], 14200 nM.
For `O=c1ccoc2ccc(OCCN3CCCCC3)cc12`, the Ki in data set [1] is 825 nM; in data set [2], 9070 nM.

These data come from ChEMBL document CHEMBL4732042, “Studies on the affinity of 6-[(n-(cyclo)aminoalkyl)oxy]-4H-chromen-4-ones for sigma 1/2 receptors” (RSC Med Chem, 2021).
